Our source for the mutagenic call values is PubChem BioAssay AID1259407 (Chemical Carcinogenesis Research Information System (CCRIS), 2018).

“Also recorded” adds a separate entry of the source. The source made the active and inactive calls. The rule behind the calls is not given here.

The data set has as its system CCRIS mutagenicity, Ames/micronucleus/aberration tests. Put plainly: CCRIS mutagenicity studies.
[1] abbreviates: Test System: AMES SALMONELLA TYPHIMURIUM, Strain/Indicator: TA98, Metabolic Activation: NONE, Method: PREINCUBATION
The mark [2] stands for this setting: Test System: AMES SALMONELLA TYPHIMURIUM, Strain/Indicator: TA100, Metabolic Activation: NONE, Method: PREINCUBATION
[3] abbreviates: Test System: AMES SALMONELLA TYPHIMURIUM, Strain/Indicator: TA1535, Metabolic Activation: NONE, Method: PREINCUBATION
Where [4] appears, read: Test System: AMES SALMONELLA TYPHIMURIUM, Strain/Indicator: TA1537, Metabolic Activation: NONE, Method: PREINCUBATION

Turning to `Oc1ccc(Cl)c(Cl)c1Cl`, the mutagenic call was “inactive; negative” (End Point: IN VITRO CHROMOSOMAL ABERRATIONS, Test System: CHINESE HAMSTER LUNG CELLS (CHL), Metabolic Activation: NONE); “inactive; negative” (End Point: IN VITRO CHROMOSOMAL ABERRATIONS, Test System: CHINESE HAMSTER LUNG CELLS (CHL), Metabolic Activation: RAT, LIVER, S-9, KC-400); “inactive; negative” (End Point: IN VITRO CHROMOSOMAL ABERRATIONS, Test System: CHINESE HAMSTER OVARY CELLS (CHO), Metabolic Activation: NONE); “active; positive (structural changes); positive only at highest dose where a total of 25” (End Point: IN VITRO CHROMOSOMAL ABERRATIONS, Test System: CHINESE HAMSTER OVARY CELLS (CHO), Metabolic Activation: RAT, LIVER, S-9, AROCLOR 1254); “inactive; positive (structural changes); multilaboratory comparison among 5 labs; 4 report; also recorded: inactive; positive (structural changes); multilaboratory comparison among 6 labs; 5 report” (End Point: IN VITRO CHROMOSOMAL ABERRATIONS, Test System: CHL CELLS, Metabolic Activation: S-9); “inactive; positive (structural changes); multilaboratory comparison among 5 labs; 4 report; also recorded: inactive; negative; multilaboratory comparison among 5 labs; 1 reported weakly positive; 4; also recorded: inactive; negative; multilaboratory comparison among 4 labs; negative except for 1 weak po” (End Point: IN VITRO CHROMOSOMAL ABERRATIONS, Test System: CHO CELLS, Metabolic Activation: NONE). The mutagenic call is “active; positive (structural changes); multilaboratory comparison among 6 labs; all repo; also recorded: inactive; positive (structural changes); multilaboratory comparison among 5 labs; 2 report” (End Point: IN VITRO CHROMOSOMAL ABERRATIONS, Test System: CHO CELLS, Metabolic Activation: S-9); “inactive; negative” (Test System: AMES SALMONELLA TYPHIMURIUM, Strain/Indicator: TA97, Metabolic Activation: HAMSTER, LIVER, S-9, AROCLOR 1254 (10 OR 30%), Method: PREINCUBATION); “inactive; negative” (Test System: AMES SALMONELLA TYPHIMURIUM, Strain/Indicator: TA97, Metabolic Activation: NONE, Method: PREINCUBATION); “inactive; negative” (Test System: AMES SALMONELLA TYPHIMURIUM, Strain/Indicator: TA97, Metabolic Activation: RAT, LIVER, S-9, AROCLOR 1254 (10 OR 30%), Method: PREINCUBATION); “inactive; negative” (Test System: AMES SALMONELLA TYPHIMURIUM, Strain/Indicator: TA98, Metabolic Activation: HAMSTER, LIVER, S-9, AROCLOR 1254 (10 OR 30%), Method: PREINCUBATION); “inactive; negative” under setting [1]. Also, the mutagenic call (Test System: AMES SALMONELLA TYPHIMURIUM, Strain/Indicator: TA98, Metabolic Activation: RAT, LIVER, S-9, AROCLOR 1254 (10 OR 30%), Method: PREINCUBATION) is “inactive; negative”; the mutagenic call (Test System: AMES SALMONELLA TYPHIMURIUM, Strain/Indicator: TA100, Metabolic Activation: HAMSTER, LIVER, S-9, AROCLOR 1254 (10 OR 30%), Method: PREINCUBATION) was “inactive; negative”; the mutagenic call under setting [2] is “inactive; negative”; the mutagenic call (Test System: AMES SALMONELLA TYPHIMURIUM, Strain/Indicator: TA100, Metabolic Activation: RAT, LIVER, S-9, AROCLOR 1254 (10 OR 30%), Method: PREINCUBATION) was “inactive; negative”; the mutagenic call (Test System: AMES SALMONELLA TYPHIMURIUM, Strain/Indicator: TA1535, Metabolic Activation: HAMSTER, LIVER, S-9, AROCLOR 1254 (10 OR 30%), Method: PREINCUBATION) was “inactive; negative”; the mutagenic call under setting [3] is “inactive; negative”. In addition, the mutagenic call runs as follows: (Test System: AMES SALMONELLA TYPHIMURIUM, Strain/Indicator: TA1535, Metabolic Activation: RAT, LIVER, S-9, AROCLOR 1254 (10 OR 30%), Method: PREINCUBATION) “inactive; negative”; (Test System: AMES SALMONELLA TYPHIMURIUM, Strain/Indicator: TA1537, Metabolic Activation: HAMSTER, LIVER, S-9, AROCLOR 1254 (30%), Method: PREINCUBATION) “inactive; negative”; under setting [4], “inactive; negative”; (Test System: AMES SALMONELLA TYPHIMURIUM, Strain/Indicator: TA1537, Metabolic Activation: RAT, LIVER, S-9, AROCLOR 1254 (30%), Method: PREINCUBATION) “inactive; negative”.

On to `N#[N+]c1ccc([O-])cc1`, for which the mutagenic call under setting [1] is “active; positive”; the mutagenic call (Test System: AMES SALMONELLA TYPHIMURIUM, Strain/Indicator: TA98, Metabolic Activation: RAT, LIVER, S-9, POLYCHLORINATED BIPHENYLS, Method: PREINCUBATION) is “active; positive”; the mutagenic call under setting [2] was “active; positive”; the mutagenic call (Test System: AMES SALMONELLA TYPHIMURIUM, Strain/Indicator: TA100, Metabolic Activation: RAT, LIVER, S-9, POLYCHLORINATED BIPHENYLS, Method: PREINCUBATION) is “active; positive”.

Consider `CC(O)CN(CC(C)O)CC(C)O` (configuration not stated), for which the mutagenic call was “inactive; negative” (Test System: AMES SALMONELLA TYPHIMURIUM, Strain/Indicator: TA98, Metabolic Activation: HAMSTER, LIVER, S-9, AROCLOR 1254 (10%), Method: PREINCUBATION); “inactive; negative” under setting [1]; “inactive; negative” (Test System: AMES SALMONELLA TYPHIMURIUM, Strain/Indicator: TA98, Metabolic Activation: RAT, LIVER, S-9, AROCLOR 1254 (10%), Method: PREINCUBATION); “inactive; negative” (Test System: AMES SALMONELLA TYPHIMURIUM, Strain/Indicator: TA100, Metabolic Activation: HAMSTER, LIVER, S-9, AROCLOR 1254 (10%), Method: PREINCUBATION); “inactive; negative” under setting [2]; “inactive; negative” (Test System: AMES SALMONELLA TYPHIMURIUM, Strain/Indicator: TA100, Metabolic Activation: RAT, LIVER, S-9, AROCLOR 1254 (10%), Method: PREINCUBATION). Moreover, the mutagenic call was “inactive; negative” (Test System: AMES SALMONELLA TYPHIMURIUM, Strain/Indicator: TA1535, Metabolic Activation: HAMSTER, LIVER, S-9, AROCLOR 1254 (10%), Method: PREINCUBATION); “inactive; negative” under setting [3]; “inactive; negative” (Test System: AMES SALMONELLA TYPHIMURIUM, Strain/Indicator: TA1535, Metabolic Activation: RAT, LIVER, S-9, AROCLOR 1254 (10%), Method: PREINCUBATION); “inactive; negative” (Test System: AMES SALMONELLA TYPHIMURIUM, Strain/Indicator: TA1537, Metabolic Activation: HAMSTER, LIVER, S-9, AROCLOR 1254 (10%), Method: PREINCUBATION); “inactive; negative” under setting [4]; “inactive; negative” (Test System: AMES SALMONELLA TYPHIMURIUM, Strain/Indicator: TA1537, Metabolic Activation: RAT, LIVER, S-9, AROCLOR 1254 (10%), Method: PREINCUBATION).

For the compound `F[B-](F)(F)F`, the mutagenic call runs as follows: under setting [1], “inactive; negative”; (Test System: AMES SALMONELLA TYPHIMURIUM, Strain/Indicator: TA98, Metabolic Activation: RAT, LIVER, S-9, KC 500, Method: PREINCUBATION) “inactive; negative”; under setting [2], “inactive; negative”; (Test System: AMES SALMONELLA TYPHIMURIUM, Strain/Indicator: TA100, Metabolic Activation: RAT, LIVER, S-9, KC 500, Method: PREINCUBATION) “inactive; negative”; under setting [3], “inactive; negative”; (Test System: AMES SALMONELLA TYPHIMURIUM, Strain/Indicator: TA1535, Metabolic Activation: RAT, LIVER, S-9, KC 500, Method: PREINCUBATION) “inactive; negative”. Further, the mutagenic call is “inactive; negative” under setting [4]; “inactive; negative” (Test System: AMES SALMONELLA TYPHIMURIUM, Strain/Indicator: TA1537, Metabolic Activation: RAT, LIVER, S-9, KC 500, Method: PREINCUBATION); “inactive; negative” (Test System: AMES SALMONELLA TYPHIMURIUM, Strain/Indicator: TA1538, Metabolic Activation: NONE, Method: PREINCUBATION); “inactive; negative” (Test System: AMES SALMONELLA TYPHIMURIUM, Strain/Indicator: TA1538, Metabolic Activation: RAT, LIVER, S-9, KC 500, Method: PREINCUBATION); “inactive; negative” (Test System: E. COLI, Strain/Indicator: WP2 UVRA, Metabolic Activation: NONE, Method: PREINCUBATION); “inactive; negative” (Test System: E. COLI, Strain/Indicator: WP2 UVRA, Metabolic Activation: RAT, LIVER, S-9, KC 500, Method: PREINCUBATION).

For the compound `FC(F)(F)c1ccc(Cl)nc1`, the mutagenic call reads like this: (Test System: MOUSE LYMPHOMA, Strain/Indicator: L5178Y (TK+/TK-), Metabolic Activation: NONE) “active; positive”; (Test System: MOUSE LYMPHOMA, Strain/Indicator: L5178Y (TK+/TK-), Metabolic Activation: RAT, LIVER, S-9, AROCLOR 1254) “active; positive”.
